Source: patent US20050085413A1, “Dimeric pharmaceutical compounds and their use” (priority 2001, published 2005)
Values after ≈ are worked out from the molar mass of the structure shown. Values joined by “and” are separate entries in the source; they are usually repeats but may differ in a detail not shown here. Equal entries are not always repeated. Structures can show the parent of a compound that is named as a salt.

Tests used:
Experiment in all cases: Plaque reduction assay (PRA) in MDCK cells
[1] = system: A/Victoria/3/75 BVLV017 (H3N2); format: cell-based, influenza virus; conditions: plaque numbers reduced by 50%
[2] = system: B/Victoria/1/67; format: cell-based, influenza virus; conditions: plaque numbers reduced by 50%, bis(trifluoroacetic acid salt)
[3] = system: A/Sydney/5/97 BVLV015 (H3N2); format: cell-based, influenza virus; conditions: plaque numbers reduced by 50%; for EC50: Influenza A virus, MDCK, read-out: EC50 ng/ml PRA A/Syd
[4] = system: B/Hong Kong/5/72 BVLV012; format: cell-based, influenza virus; conditions: for EC50: MDCK, read-out: EC50 ng/ml PRA B/HongK
[5] = system: B/Yamanashi/166/98 BVLV007; format: cell-based, influenza virus; conditions: plaque numbers reduced by 50%; for EC50 ng/ml PRA B/Yam: B/Yamanashi/166/98 BVLV007
[6] = system: A/WSN/33 BVLV09 (H1N1); format: cell-based, influenza virus; conditions: plaque numbers reduced by 50%; for EC50: Influenza A virus, MDCK, read-out: EC50 ng/ml PRA A/WSN
[7] = system: A/New Caledonia/20/99 BVLV008 (H1N1); format: cell-based, influenza virus; conditions: plaque numbers reduced by 50%; for EC50: Influenza A virus, H1N1, MDCK, read-out: EC50 ng/ml PRA A/New
[8] = system: A/Panama/2007/99 BVLV008 (H3N2); format: cell-based, influenza virus; conditions: plaque numbers reduced by 50%; for EC50: Influenza A virus, H3N2, MDCK, read-out: EC50 ng/ml PRA A/Pan
[9] = system: A/Bayern/7/95 BVL006 (H1N1); format: cell-based; conditions: Influenza A virus, plaque numbers reduced by 50%, read-out: EC50 ng/ml PRA A/Bay
[10] = system: B/Harbin/7/95 BVLV008; format: cell-based, influenza virus; conditions: read-out: EC50 ng/ml PRA B/Harb

Row | Compound | EC50 ng/ml PRA A/Vic [1] [ng/mL] | EC50 ng/ml PRA B/Vic [2] | EC50 ng/ml PRA A/Syd [3] [ng/mL] | EC50 ng/ml PRA B/HongK ([4]; B/Hong Kong/5/72 BVLV012, plaque numbers reduced by 50%) [ng/mL] | EC50 ng/ml PRA B/Yam [5] | EC50 [6] [ng/mL] | EC50 [7] [ng/mL] | EC50 [3] [ng/mL] | EC50 [4] [ng/mL] | EC50 [8] [ng/mL] | EC50 ([5]; unidentified influenza virus, MDCK, read-out: EC50 ng/ml PRA B/Yam, B/Yamanashi/166/98 BVLV007) [ng/mL] | EC50 ([1]; Influenza A virus, H3N2, MDCK, read-out: EC50 ng/ml PRA A/Vic) [ng/mL] | EC50 ng/ml PRA A/WSN [6] [ng/mL] | EC50 [9] [ng/mL] | EC50 [10] [ng/mL] | EC50 ng/ml PRA A/New [7] [ng/mL] | EC50 ng/ml PRA A/Pan [8] [ng/mL]
1 | CC(=O)N[C@H]1[C@H]([C@H](OC(=O)NCCCCCCCCCCCCCCNC(=O)O[C@@H]([C@@H]2OC(C(=O)O)=C[C@H](NC(=N)N)[C@H]2NC(C)=O)[C@H](O)CO)[C@H](O)CO)OC(C(=O)O)=C[C@@H]1NC(=N)N.O=C(O)C(F)(F)F.O=C(O)C(F)(F)F [Example 3, (2R,3R,4S)-3-(acetylamino)-2-{(1R,22R,23R)-22-((2R,3R,4S)-3-(acetylamino)-4-{[amino(imino)methyl]amino}-6-carboxy-3,4-dihydro-2H-pyran-2-yl)-1-[(1R)-1,2-dihydroxyethyl]-23,24-dihydroxy-3,20-dioxo-2,21-dioxa-4,19-diazatetracos-1-yl}-4-{[amino(imino)methyl]amino}-3,4-dihydro-2H-pyran-6-carboxylic acid bis(trifluoroacetic acid salt)] | 0.0023 | 0.009 ng/mL and 0.01 ng/mL | 0.000429 | <0.0001 | <0.0001, <0.0001 ng/ml | – | – | – | – | – | – | – | – | – | – | – | –
2 | CC(=O)N[C@H]1[C@H]([C@H](OC(=O)NCCCCCCCCCCCCNC(=O)O[C@@H]([C@@H]2OC(C(=O)O)=C[C@H](NC(=N)N)[C@H]2NC(C)=O)[C@H](O)CO)[C@H](O)CO)OC(C(=O)O)=C[C@@H]1NC(=N)N.O=C(O)C(F)(F)F.O=C(O)C(F)(F)F [Example 2, (2R,3R,4S)-3-(acetylamino)-2-{(1R,20R,21R)-20-((2R,3R,4S)-3-(acetylamino)-4-{[amino(imino)methyl]amino}-6-carboxy-3,4-dihydro-2H-pyran-2-yl)-1-[(1R)-1,2-dihydroxyethyl]-21,22-dihydroxy-3,18-dioxo-2,19-dioxa-4,17-diazadocos-1-yl}-4-{[amino(imino)methyl]amino}-3,4-dihydro-2H-pyran-6-carboxylic acid bis(trifluoroacetic acid salt)] | – | 0.04 ng/mL and 0.05 ng/mL | <0.0001 | – | <0.0001 ng/mL | – | – | – | – | – | – | – | – | – | – | – | –
3 | CC(=O)N[C@H]1[C@H]([C@H](OC(=O)NCCCCCCCCCCCCCNC(=O)O[C@H](C(O)CO)[C@@H]2OC(C(=O)O)=C[C@H](NC(=N)N)[C@H]2NC(C)=O)[C@H](O)CO)OC(C(=O)O)=C[C@@H]1NC(=N)N (stereo partly drawn) [Example 4, (2R,3R,4S)-3-(acetylamino)-2-{(1R,21R,22R)-21-((2R,3R,4S)-3-(acetylamino)-4-{[amino(imino)methyl]amino}-6-carboxy-3,4-dihydro-2H-pyran-2-yl)-1-[(1R)-1,2-dihydroxyethyl]-22,23-dihydroxy-3,19-dioxo-2,20-dioxa-4,18-diazatricos-1-yl}-4-{[amino(imino)methyl]amino}-3,4-dihydro-2H-pyran-6-carboxylic acid bis(trifluoroacetic acid salt)] | – | – | – | – | – | < 0.0001 | 0.043 | < 0.0001 | 0.06 | < 1e-05 | < 0.0001 | – | – | – | – | – | –
4 | CC(=O)N[C@H]1[C@H]([C@H](O)[C@H](O)CO)OC(C(=O)O)=C[C@@H]1NC(=N)N [Compound A] | – | – | – | – | – | 56 (≈ 169 nM) | 0.27 (≈ 0.812 nM) | 2.4 (≈ 7.22 nM) | 21 (≈ 63.2 nM) | 2.7 (≈ 8.12 nM) | – | 5.5 (≈ 16.6 nM) | > 100 | 35 (≈ 105 nM) | 0.19 (≈ 0.572 nM) | 0.23 (≈ 0.692 nM) | 3 (≈ 9.03 nM)
